Results taken from US20240009137A1, “ORAL THERAPEUTIC DELIVERY” (ROYAL MELBOURNE INSTITUTE OF TECHNOLOGY, priority 2020, published 2024).
“And” between values parts separate entries of the source, which are not always exact repeats. Identical values can stand only once.

Key:
[1] = Human growth hormone in blood plasma (ELISA) after SC injection or oral capsule; assay type: in vivo, Sprague Dawley rats
Method: Four male Sprague Dawley rats were used as controls. Each rat was anaesthetised with isoflurane followed by preparation of the saphenous vein. The rats were given 1 mg/kg of human growth hormone via SC injection, immediately following this they were placed on a heat-mat until they regained consciousness, before being housed in pairs in boxes. Blood collection (150 μl) was taken via the saphenous vein at 0, 30-, 70-, 120-, 180-, 240- and 360-mins post-injection. The blood concentration of the protein in the blood was tested using the relevant ELISA kit for human growth hormone.
(§1) Eight male Sprague Dawley rats were used. Each rat was anaesthetised with isoflurane followed by preparation of the saphenous vein and the first blood collection (150 μl). An enteric capsule with a thick polymer coating of approximately 160 μm containing 1 mg/kg of the human growth hormone encapsulated in MO lipid cubic phase was then introduced via oral gavage into the rat stomach. Immediately following this they were placed on a heat-mat until they regained consciousness, before being housed in pairs. Blood collection (150 μl) was taken via the saphenous vein at 0, 35-, 50-, 120-,180-, 240- and 360-mins post-injection
(§2) All data are analysed on a Clariostar Plate Reader to determine concentration against a standard curve for the relevant drug.
(§3) Concentrations provided in FIGS. 10-13 are the measured concentration of the drug in the blood plasma (determined using specific Elisa kits) and are in units of ng/ml. The initial drug concentration measured at the 0 time point has been set to zero in each case and other data scaled relative to this.

[2] = system: blood glucose of diabetic Sprague Dawley rats; experiment: Blood glucose levels in STZ-induced diabetic rats after insulin by SC injection or oral capsule; assay type: in vivo; conditions: for time over which BG levels continued to decrease: 1 IU SC injection; for Percentage of SC injection (%), efficacy of oral delivery: MO cubic phase
Method: 14 Sprague Dawley rats were used in this trial. One week before each phase started, all rats were given isoflurane until unconscious. Each rat was then injected intravenously in the tail with 60 mg/kg of streptozotocin (STZ) in a sodium citrate buffer. All rats were then housed in pairs and blood glucose was monitored 3 times per day over 48 hours. The induction of diabetes was confirmed when the blood glucose level was >14 mmol/L in the morning.
The rats were then housed in pairs in two boxes. Blood collection was taken at 5-, 360-, and 1440-minutes post-injection, and the BG level tested at each time point.
Four Sprague Dawley rats were used in Phase 1 and four in Phase 2. Each was initially given isoflurane until unconscious. This was followed by preparation of the saphenous vein and the baseline basal BG was tested. […] Blood collection (10 μl) was taken at 15-, 30-, 60-, 120-, and 360-minutes post-injection. BG testing was performed immediately at each time point using an Accu Chek BG monitor and strips.
Four Sprague Dawley rats were used in Phase 1 and four in Phase 2. Each was initially given isoflurane until unconscious. This was followed by preparation of the saphenous vein and the baseline basal BG was tested. […] Blood collection (10 μl) was taken at 30-, 60-, 120-, 360-, and 465-minutes post-injection. BG testing was performed immediately at each time point using an Accu Chek BG monitor and strips. One rat didn't develop diabetes and one rat had kidney problems. In each case, the AWO (Animal Welfare Officer) was consulted and both rats were removed from the trial.
Four Sprague Dawley rats were used in this part of the trial. Each was initially given isoflurane until unconscious. This was followed by preparation of the saphenous vein and the first blood collection (10 μl) and BG testing. […] Blood collection (10 μl) was taken at 75-, 120-, 180-, 240-, 300- and 360- minutes, and BG testing was performed at each time point using an Accu Chek BG monitor and strips.
Two Sprague Dawley rats were used in this part of the trial. Each was initially given isoflurane until unconscious. This was followed by preparation of the saphenous vein and the first blood collection (10 μl) and BG testing. […] Immediately following this they were placed on a heat-mat until they regained consciousness, before being housed in pairs in boxes. Blood collection (10 μl) was taken at 105-, 135-, 165-, 210-, 345- and 460- minutes, and BG testing was performed at each time point using an Accu Chek BG monitor and strips.
Four Sprague Dawley rats were used in this part of the trial. Each was initially given isoflurane until unconscious. This was followed by preparation of the saphenous vein and the first blood collection (10 μl) and BG testing. […] Immediately following this they were placed on a heat-mat until they regained consciousness, before being housed in pairs in boxes. Blood collection (10 μl) was taken at 45-, 75-, 120-, 160-, 220-, 260-, 300- and 360- minutes, and BG testing was performed at each time point using an Accu Chek BG monitor and strips.
Two Sprague Dawley rats were used in this part of the trial. Each was initially given isoflurane until unconscious. This was followed by preparation of the saphenous vein and the first blood collection (10 μl) and BG testing. […] Immediately following this they were placed on a heat-mat until they regained consciousness, before being housed in pairs in boxes. Blood collection (10 μl) was taken at 30-, 60-, 80-, 125-, 180-, 280-, 340-, 400- and 460- minutes, and BG testing was performed at each time point using an Accu Chek BG monitor and strips.

in vivo = experiment: in vivo; design: species or system Sprague Dawley rats; conditions: male, Sprague-Dawley, rat, 1 mg/kg
Method: Four male Sprague Dawley rats were used as controls. Each rat was anaesthetised with isoflurane followed by preparation of the saphenous vein. The rats were given 1 mg/kg of meropenem via SC injection, immediately following this they were placed on a heat-mat until they regained consciousness, before being housed in pairs in boxes. Blood collection (150 μl) was taken via the saphenous vein at 0, 30-, 70-, 120-, 180-, 240- and 360-mins post-injection. The blood concentration of the protein in the blood was tested using the relevant ELISA kit for meropenem.
as §1, with “meropenem” for “the human growth hormone”, “120-, 180-,” for “120-,180-,”, “post-injection.” for “post-injection”
as §2, §3

[3] = Fluorescence recovery after photobleaching (FRAP), diffusion coefficient; assay type: physicochemical
Method: FRAP was performed on a Nikon confocal microscope. […] A bleaching and background region of interest (ROI) was used to selectively photobleach an area of the cubic phase and the fluorescence recovery curve was recorded with time. The excitation/emission wavelengths used were 553/627 nm for the octadecyl rhodamine B chloride. […] […] The open source Matlab code frap_analysis_2p5 was used to determine diffusion coefficients μ from FRAP data.

[4] = oral enteric capsule vs SC, 1 mg/kg
[5] = oral enteric capsule, MO cubic phase, 1 mg/kg
[6] = 1 IU oral, MO cubic phase in enteric capsule T=3, Phase 1, Rats 2-4

human growth hormone: Human Growth Hormone (MyBioSource), given SC or in MO cubic phase within enteric capsule
time at which total amount of protein delivered (AUC) reaches a plateau ([1]; SC injection 1 mg/kg): approximately 180 min
time by which baseline drug concentrations are reached ([1]; SC injection 1 mg/kg): ≤ 300 min
time of maximum plasma concentration ([1]; SC injection 1 mg/kg): 60 min
maximum drug concentration in blood plasma ([1]; SC injection 1 mg/kg, range over four rats): 20 to 32 ng/mL
maximum drug concentration in blood plasma ([1]; oral enteric capsule (approx. 160 μm coating), MO cubic phase, 1 mg/kg, range over rats): 19 to 24 ng/mL
maximum drug plasma concentration as % of that following SC injection [1, 4]: 81%
overall bioavailability as % of that following SC injection [1, 4]: 87.2%
lag period before total protein delivered starts to increase [1, 5]: 30 min
time at which total protein delivered (AUC) reaches a plateau [1, 5]: around 240 mins
time by which baseline drug concentrations are reached [1, 5]: ≤ 240 min
time of maximum plasma concentration [1, 5]: 50 min

Actrapid insulin: fast acting insulin (Actrapid, Novo Nordisk), given SC or in MO cubic phase within enteric capsule
time over which BG levels continued to decrease ([2]; Phase 1): approximately 110 mins
time over which BG levels continued to decrease ([2]; Phase 2): approximately 120 mins
lead time: BG levels continued to increase after oral administration ([2]; 1 IU oral, MO cubic phase in enteric capsule T=1, Phase 2, Rats 5-8): approximately 60 mins
overall decrease in BG ([2]; 1 IU oral, MO cubic phase in enteric capsule T=1, Phase 2, individual Rats 5, 6, 7, 8 in this order): 6.2 mmol/L and 8.7 mmol/L and 11.4 mmol/L and 4.6 mmol/L
lead time: BG levels continued to increase after oral administration [2, 6]: 100 to 110 min
time period over which BG levels decreased [2, 6]: 70 to 180 min
overall decrease in BG ([2]; 1 IU oral, MO cubic phase in enteric capsule T=3, Phase 1, individual Rats 2, 3, 4 in this order): 3.6 mmol/L and 3.1 mmol/L and 3.4 mmol/L
time BG levels remained below 14 mmol/L ([2]; 15 IU by SC injection, pre-trial period, diabetic rats): approximately 450 minutes
response of blood glucose to oral administration ([2]; Rat 1, perforated enterically coated capsule shell with lipid cubic phase, 1 IU, Phase 1 (comparative)): not pronounced
Percentage of SC injection (%) ([2]; SC injection, 1 IU (reference)): 100%
Percentage of SC injection (%), efficacy of oral delivery ([2]; oral capsule T = 1 (thinner coating), 1 IU, listed as Fast Acting Insulin): 93.1%
Percentage of SC injection (%), efficacy of oral delivery ([2]; oral capsule T = 1 (thinner coating), 1 IU, listed as fast-acting insulin): 93%
Percentage of SC injection (%), efficacy of oral delivery ([2]; oral capsule T = 3 (thicker coating), 1 IU, listed as Fast Acting Insulin): 56.1%
Percentage of SC injection (%), efficacy of oral delivery ([2]; oral capsule T = 3 (thicker coating), 1 IU, listed as fast-acting insulin): 56%

C[C@@H](O)[C@H]1C(=O)N2C(C(=O)O)=C(S[C@@H]3CN[C@H](C(=O)N(C)C)C3)[C@H](C)[C@H]12 [meropenem]
bioavailability (in vivo): 58%
maximum drug plasma concentration as % of that following SC injection (in vivo): 55%
maximum drug concentration in blood plasma (in vivo; po): 19 to 23 ng/mL
time by which baseline drug concentrations are reached (in vivo; po): ≤ 180 min
time of maximum plasma concentration (in vivo; po): 50 min
maximum drug concentration in blood plasma (in vivo; sc): 37 to 40 ng/mL
time by which baseline values are reached (in vivo; sc): ≤ 240 min
time of maximum plasma concentration (in vivo; sc): 30 min

CCCCCCCCCCCCCCCCCCOC(=O)c1ccccc1-c1c2ccc(=[N+](CC)CC)cc-2oc2cc(N(CC)CC)ccc12.[Cl-] [Octadecyl rhodamine B chloride, octadecyl rhodamine B chloride]
Diffusion Coefficient ([3]; in MO QII^D bulk cubic phase (insulin: FITC labelled, 5 mg/ml)): 0.97 ×10^−6 cm^2 s^−1
Diffusion Coefficient ([3]; in PT QII^D bulk cubic phase (insulin: FITC labelled, 5 mg/ml)): 0.59 ×10^−6 cm^2 s^−1
